For assay [1], the system named is Marburg virus induced TNF-α release in primary human macrophages. The assay is classed as cell-based.
Assay [2] concerns Ebola virus induced TNF-α release in primary human macrophages. It counts as cell-based.
The test system of assay [3] is bacterial LPS-induced TNF-α release. The assay is classed as cell-based, human.
Assay [4] deals with Marburg (MBG) virus infected peripheral blood mononuclear cells (PBMC). It counts as cell-based, human.
Assay [5] has as its system Ebola (EBO) virus infected peripheral blood mononuclear cells (PBMC). The assay is classed as cell-based, human.
In assay [6] the test system is IL-1 beta release of Marburg virus infected VeroE6 cells.
Assay [7] relates to IL-1 beta release of Ebola virus infected VeroE6 cells.

Regarding `Oc1ccc(-c2nc(-c3ccc(F)cc3)c(-c3ccncc3)[nH]2)cc1` [Compound 4], the “Marburg virus induced TNF-α release/production” value in [1] was “did not significantly inhibit”. In [2], the “Ebola virus induced TNF-α release/production” value was “did not significantly inhibit”. Further, the “bacterial LPS-induced TNF-α production” value in [3] was “no inhibitory effect at all”.
With `COc1cccc(-c2cc(=O)c3ccccc3o2)c1N` [Compound 1, 2′-amino-3′-methoxyflavone], in [4], the TNF-α release result was “dose-dependent inhibitory effect”. In addition, the TNF-α release entry in [5] is recorded as “dose-dependent inhibitory effect”. Also, in [1], the “Marburg virus induced TNFα production” value was “inhibited very strongly and dose-dependently”; the “virally induced TNF-α release” value was “inhibitory effects”. In assay [2], the “Ebola virus induced TNFα production” value was “inhibited very strongly and dose-dependently”; the “virally induced TNF-α release” value was “inhibitory effects”. In addition, in assay [3], the “bacterial LPS-induced TNF-α production” value is “no inhibitory effect at all” and the “bacterial LPS-induced TNF-α release” value is “did not reduce”.
Consider `N#CC(=C(N)Sc1ccccc1N)C(C#N)=C(N)Sc1ccccc1N` [Compound 3, 1,4-diamino-2,3-dicyano-1,4-bis(2-aminophenylthio)butadiene], for which the TNF-α release entry in assay [4] is recorded as “dose-dependent inhibitory effect”. Moreover, the TNF-α release entry in [5] is on record as “dose-dependent inhibitory effect”. In addition, in [1], the “Marburg virus induced TNFα production” value was “inhibited very strongly and dose-dependently”; the “virally induced TNF-α release” value is recorded as “inhibitory effects”. In assay [2], the “Ebola virus induced TNFα production” value was “inhibited very strongly and dose-dependently”; the “virally induced TNF-α release” value is “inhibitory effects”. Besides, in [3], the “bacterial LPS-induced TNF-α production” value is reported as “no inhibitory effect at all” and the “bacterial LPS-induced TNF-α release” value is given as “did not reduce”. Also, the “replication of Marburg virus (plaques)” value in the assay on Marburg virus is listed as “does not have an obvious effect”. In addition, the “replication of Ebola virus (plaques)” value in the assay with Ebola virus is on record as “does not have an obvious effect”. Also, the “release of IL-1 beta to the supernatant” value in assay [6] is recorded as “dramatically reduces”. For the same compound, the “release of IL-1 beta to the supernatant” value in assay [7] is “dramatically reduces”.
`O=C(NOCC1CC1)c1ccc(F)c(F)c1Nc1ccc(I)cc1Cl` [Compound 2, 2-(2-chloro-4-iodophenylamino)-N-cyclopropylmethoxy-3,4-difluorobenzamide]: in [4], the TNF-α release entry is “inhibitory effect”. The TNF-α release entry in assay [5] is “inhibitory effect”. In assay [1], the “Marburg virus induced TNFα production” value was “inhibited very strongly and dose-dependently”; the “virally induced TNF-α release” value was “inhibitory effects”. In assay [2], the “Ebola virus induced TNFα production” value was “inhibited very strongly and dose-dependently”; the “virally induced TNF-α release” value was “inhibitory effects”. For the same compound, in assay [3], the “bacterial LPS-induced TNF-α production” value is given as “no inhibitory effect at all” and the “bacterial LPS-induced TNF-α release” value is “did not reduce”.
